Measured values: patent publication US20240358862A1, “Synthesis Method and Application of a Near-infrared Probe GGa-ICG specific binding to PSCA” (Guangzhou Shiyun Biotechnology Co., Ltd, priority 2022, published 2024)
pKd: −log10 of the molar value.

Columns and labels:
PC-3 cells [1] = test: Endocytosis experiment; format: cell-based, human; settings: 37° C. vs 4° C., trypsin wash
Procedure: PC-3 cells were incubated with 200 nM GGa-ICG or ssDNA-ICG in 200 μL binding buffer at 37° C. for 10 minutes to observe cell membrane binding. After 2 hours of incubation, the cells were treated with 0.25% trypsin or 0.1 mg/mL proteinase K at 37° C. for 10 minutes to observe internal binding.
For inhibition of endocytosis, PC-3 cells were incubated with 200 nM GGa-ICG or ssDNA-ICG in 200 μL binding buffer at 4° C. for 2 hours to observe cell membrane binding. After 4 hours of incubation, the cells were treated with 0.25% trypsin or 0.1 mg/mL proteinase K at 37° C. for 10 minutes to observe internal binding.

PSCA = target: T1, PSCA (Homo sapiens, UniProt O43653); test: Mass spectrometry analysis of the target protein of GGa-ICG; format: binding; set-up: Membrane proteins of PC-3 cells were extracted; endogenous in cells; host or cells: PC-3; settings: PC-3 membrane proteins, 35 kDa band
T1 sequence (O43653 12-83): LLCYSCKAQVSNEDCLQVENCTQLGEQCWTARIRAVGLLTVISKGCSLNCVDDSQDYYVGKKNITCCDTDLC
Procedure: PC-3 cells were washed three times with cold PBS buffer and lysed at 4° C. for 30 minutes in 5 mL of low-salt buffer [50 mM Tris-HCl (pH=7.5) containing protease inhibitor (0.1 mM PMSF complex)]. After centrifugation, the pellets were washed 3 times with 5 mL of low-salt buffer and then solubilized in 1.5 mL of lysis buffer (PBS containing 5 mM MgCl2 and 1% Triton X-100) at 4° C. for 30 minutes. The resulting supernatants were separately incubated with beads, ssDNA-ICG, or GGa-ICG at 4° C. for 1 hour. Protein-ssDNA-ICG or protein-GGa-ICG complexes were then captured by incubating them with 2 mg (200 μL) of streptavidin beads at 4° C. for 45 minutes. After centrifugation, the captured proteins were heated and eluted in 30 μL of loading buffer and then analyzed by SDS-PAGE gel and Coomassie blue staining. The protein bands showing significant differences in aptamer purification among different groups were subjected to in situ digestion and analyzed by LC-MS/MS.
Based on the above results, total membrane proteins were extracted from PC-3 cells and incubated with biotinylated GGa-ICG or ssDNA-ICG separately. Then, the binding complex was separated using streptavidin-coated magnetic beads and analyzed by SDS-PAGE gel. A characteristic protein band with a relative molecular weight of 35 kDa was found in the GGa-ICG column, which was digested and analyzed by LC-MS/MS QSTAR.

PC-3 cells [2] = test: Affinity detection by flow cytometry; format: binding, human; settings: PC3 cells, 0-500 nM, 37° C., read-out: dissociation constant
Procedure: To test the affinity of different GGa-ICG aptamers for PC-3 cells, aptamers at different concentrations (0, 10, 20, 50, 100, 200, 500 nM) are incubated with 2×10^5 cells at 37° C. After digestion into a cell suspension, flow cytometry was used for analysis. The average fluorescence intensity of the background was subtracted from that of each sample. The equilibrium dissociation constant (Kd) for aptamer-cell interactions is calculated using SigmaPlot software.

[3] = tested on: tumor cell lines with elevated PSCA expression; test: Flow cytometry binding to other tumor cell lines; format: cell-based
Description: PSCA is expressed at high levels in various tumors such as prostate cancer, bladder cancer, kidney cancer, breast cancer, colon cancer, lung cancer, pancreatic cancer, etc. Using the aforementioned method, T24 bladder cancer cells, Cakil renal cancer cells, MDA-MB468 breast cancer cells, HT29 colon cancer cells, PANC1 pancreatic cancer cells, NCI-H460 lung cancer cells, and other cell lines were stained with GGa-ICG for flow cytometry analysis. Positive cell lines were used to establish subcutaneous transplantation tumor models to detect the visualization of GGa-ICG in vivo.

PSCA on PC-3 cells = target: T2, PSCA on PC-3 cells (Homo sapiens, UniProt O43653); test: Antibody competition experiment by flow cytometry; format: cell-based; settings: 200 nM GGa-ICG, 10 μg/mL anti-PSCA-FITC
T2 construct: Membrane proteins of PC-3 cells were extracted; endogenous in cells; host or cells: PC-3
T2 sequence (O43653 12-83): T1 sequence (O43653 12-83)
Procedure: A suspension of 5×10^5 cells of PC-3 or other cell lines was incubated with 200 nM of GGa-ICG or anti-PSCA-FITC antibody in 100 μL of binding buffer on ice for 30 minutes, washed again, and subjected to flow cytometry analysis (FACS Calibur instrument, BD Biosciences): 10,000 events were collected for each sample. ICG-labeled ssDNA-ICG was used as a negative control. For the antibody competition experiment, 5×10^5 cells were incubated with 200 nM of GGa-ICG in binding buffer on ice for 30 minutes, followed by the addition of 10 μg/mL of anti-PSCA-FITC antibody and further incubation for 30 minutes as the GGa-ICG blocking group. 10 μg/mL of anti-PSCA-FITC was incubated in binding buffer on ice for […], followed by the addition of 200 nM of GGa-ICG and further incubation for 30 minutes as the anti-PSCA-FITC blocking group. Both 200 nM of GGa-ICG and 10 μg/mL of anti-PSCA-FITC antibody were incubated on ice for 30 minutes as the combined group. After washing, the cells were resuspended and subjected to flow cytometry analysis.
To confirm the results of the mass spectrometry, the location of GGa-ICG and PSCA on PC-3 cells was first examined. To achieve this, PC-3 cells were incubated with […].

GGa-ICG: near-infrared probe: PSCA-binding nucleic acid aptamer GGa linked at 3′ to an ICG derivative dye (DNA TGCCACTACAGCTGGTTCGGTTTGGTGACTTCGTTCTTCGTTGTGGT; 3'-ICG dye, further chemistry not given here)
mode of cell entry (PC-3 cells [1]): enters cells through endocytosis | target protein hit list by LC-MS/MS (PSCA): PSCA ranking first | pKd (PC-3 cells [2]): 7.26 | binding to tumor cell lines with elevated PSCA expression [3]: could bind | relationship with PSCA antibody in flow cytometry (PSCA on PC-3 cells): competitive relationship
